# Data taken from patent US20130296236A1, “TREATMENT PROTOCOL OF DIABETES TYPE 2” (priority 2011, published 2013).
# System: patients with type 2 diabetes
# Type: in vivo, human
# Conditions: reduction from […]; insulin glargine on top of metformin +/- TZDs, before randomized treatment
# Method: The study consisted of 3 periods: (1) an up to 14-week screening period, which included an up to 2-week screening phase and a 12-week run-in phase with the introduction and titration of insulin glargine on top of metformin+/−TZDs; patients started insulin glargine once daily and titrated the insulin dose by a treat-to-target regimen to reach a glycemic target of FPG 100-80 mg/dl (5.6-4.4 mmol/L) during run-in.
# Of note, per protocol, insulin dose adjustment to maintain fasting plasma glucose at target was allowed in both treatment groups throughout the study.
substance,measurement,value
Gly(A21)-Arg(B31)-Arg(B32)-human insulin [insulin glargine],"Mean HbA1c after the 12-week run-in phase, lixisenatide group",7.56%
same,"Mean HbA1c after the 12-week run-in phase, placebo group",7.60%
